Tests used:
Format in all cases: cell-based
MEC (+APH) = assay: MEC (+APH)
HCT116 Bcl/xl = assay: IC50 assay by Western blot (APH-treated cells), HCT116 Bcl/xl; conditions: for IC50: Homo sapiens, HCT-116
Experimental: (§1) E. Treatment of Cells for IC50 Assay by Western Blot
(§2) The compound is stored as a 1 mM stock solution prepared in accordance with the Receipt of Compound SOP. The stock solution is diluted in cell media in two separate 1:10 dilution series.
(§3) 1. Arrange twelve 15-mL centrifuge tubes in a rack in two series and label them in accordance with Dilutions Series 1 and Dilution Series 2 shown in Table 1 and Table 2, respectively.
(§4) 2. Place 2.5 mL of prewarmed cell media in each of the […]. Place 2.25 mL of prewarmed cell media in the remaining tubes.
(§5) 3. Add 7.5 μL of 1 mM compound stock solution in the 3 μM tube. Mix well.
(§6) 4. Add 2.5 μL of 1 mM compound stock solution in the 1 μM tube. Mix well.
(§7) 5. For each series (separately), remove 250 μL from the leftmost tube and transfer to the next tube to the right. Repeat for each tube until the series is complete.
(§8) 6. Set aside the 1 μM tube, the 3 μM tube, and the 300 nM tube for discard.
(§9) 7. The cells to be treated will be in 6-well plates labeled by cell line. Remove the cells from the incubator and label the wells with the dosages to be administered.
(§10) 8. Arrange the dilution tubes in the rack in a manner that reflects the 6-well plate arrangement so as to avoid confusion when administering the dosage solutions to the appropriate wells.
(§11) 9. Aspirate the three wells in the top row of the first plate (labeled NT, APH+, and APH+) and replace with 2 mL fresh media (without drug compound).
(§12) 10. Aspirate the three wells in the bottom row of the first plate and replace each well with 2 mL of solution from the appropriate tube.
(§13) 11. Repeat step 10 for the next row of wells (top row second plate). and then for the final row of wells (bottom row second plate).
(§14) 12. Place both plates into the incubator for 30 minutes.
(§15) 13. After 30 minutes have elapsed, remove the plates from the incubator.
(§16) 14. Acquire stock solution of APH (5 mM) and add 2 μL of the APH stock solution to the center of each well except the well labeled NT.
(§17) 15. Swirl the plates carefully and gently to diffuse the APH throughout each well.
(§18) 16. Place the plates back in the incubator for 4 hours, at which point the cells will be harvested for analysis.
(§19) 17. Twenty minutes before harvesting (or 3 hours and 40 minutes after administration of APH), turn on a heat block suitable to heat Eppendorf tubes. Set the temperature to 95° C.
(§20) 18. Set up a number of Eppendorf tubes equal to the number of wells treated (i.e., twelve per two-plate drug administration), and label each tube with cell line, compound administered, dosage level, and date. Leave the tubes open.
(§21) 19. Add 200 mL DI water to a beaker.
(§22) 20. After 4 hours, remove treated plates from incubator.
(§23) 21. Aspirate media from all wells.
(§24) 22. Wash each well with 2 mL 1×PBS and aspirate.
(§25) 23. Sterilize vacuum line with 70% ethanol by spraying some into the nozzle while the vacuum is engaged. Shut off vacuum.
(§26) 24. Add Laemmli buffer to each well. For HCT116 Bcl/xl, OVCAR-3, and 22RV1 cells, add 300 μL per well; for OVCAR-8 and SKOV-3 cells, add 250 μL per well.
(§27) 25. Scrape the first well thoroughly. Place the scraper into the DI water between uses.
(§28) 26. Transfer the lysed cell debris mixture to the first tube carefully. The mixture will be viscous. Use a 1000-μL pipettor. Close the tube.
(§29) 27. Repeat steps 25 and 26 for each well.
(§30) 28. When all wells have been harvested, place all the tubes into the heat block. Place a weighted, heat-resistant object on top of the tubes to keep them closed.
(§31) 29. After 5 minutes, remove the tubes from the heat block and turn it off. Vortex each tube for 10 seconds. Be cautious of tubes popping open.
(§32) 30. Allow the tubes to come to room temperature and proceed to further analysis or store frozen at −20° C.

OVCAR-3 = assay: IC50 assay by Western blot (APH-treated cells), OVCAR-3; conditions: OVCAR-3 cells; for IC50: Homo sapiens
Experimental: as §1, §2, §3, §4, §5, §6, §7, §8, §9, §10, §11, §12, §13, §14, §15, §16, §17, §18, §19, §20, §21, §22, §23, §24, §25, §26, §27, §28, §29, §30, §31, §32

OVCAR-8 = assay: IC50 assay by Western blot (APH-treated cells), OVCAR-8; conditions: OVCAR-8 cells; for IC50: Homo sapiens
Experimental: as §1, §2, §3, §4, §5, §6, §7, §8, §9, §10, §11, §12, §13, §14, §15, §16, §17, §18, §19, §20, §21, §22, §23, §24, §25, §26, §27, §28, §29, §30, §31, §32

SKOV-3 = assay: IC50 assay by Western blot (APH-treated cells), SKOV-3; conditions: SKOV-3 cells; for IC50: Homo sapiens, SK-OV-3
Experimental: as §1, §2, §3, §4, §5, §6, §7, §8, §9, §10, §11, §12, §13, §14, §15, §16, §17, §18, §19, §20, §21, §22, §23, §24, §25, §26, §27, §28, §29, §30, §31, §32

22RV1 = assay: IC50 assay by Western blot (APH-treated cells), 22RV1; conditions: 22RV1 cells; for IC50: Homo sapiens
Experimental: as §1, §2, §3, §4, §5, §6, §7, §8, §9, §10, §11, §12, §13, §14, §15, §16, §17, §18, §19, §20, §21, §22, §23, §24, §25, §26, §27, §28, §29, §30, §31, §32

[1] = test system: HCT Bcl/xl, OVCAR-3, OVCAR-8, SKOV-3, 22RV1 cell lines; assay: Ave. IC50 across cell lines; conditions: average across cell lines

SMILES | minimal effective concentration (MEC (+APH)) [µM] | IC50 (HCT116 Bcl/xl) [nM] | PALD (Percent Activity at Lowest Dose tested) HCT Bcl/xl (HCT116 Bcl/xl) | IC50 (OVCAR-3) [nM] | PALD (Percent Activity at Lowest Dose tested) OVCAR-3 (OVCAR-3) | IC50 (OVCAR-8) [nM] | PALD (Percent Activity at Lowest Dose tested) OVCAR-8 (OVCAR-8) | IC50 (SKOV-3) [nM] | PALD (Percent Activity at Lowest Dose tested) SKOV-3 (SKOV-3) | PALD (Percent Activity at Lowest Dose tested) 22RV1 (22RV1) | IC50 (22RV1) [nM] | IC50 [1] [nM]
CC1(O)CCCCCCOc2c(CN)cccc2NC(=O)c2nc(cnc2N)-c2ccc(cc2)S(=O)(=O)C(C)(C)C1 (racemic) [Compound C, 5-amino-13-(aminomethyl)-22-hydroxy-22,24,24-trimethyl-25,25-dioxo-15-oxa-25λ^6-thia-4,8,31-triazatetracyclo[24.2.2.1^2,6.0^9,14]hentriaconta-1(28),2(31),3,5,9(14),10,12,26,29-nonaen-7-one] | 1e-05 | 2.06 | (65%) | 3.85 | (158%) | 6.8 | (73%) | 1.08 | (100%) | (90%) | 4.32 | 3.6
CNCc1cccc2c1OCCCCCC[C@](C)(O)CC(C)(C)S(=O)(=O)c1ccc(cc1)-c1cnc(N)c(n1)C(=O)N2 (single isomer, unassigned) [Compound A-1] | 2e-05 | 2.68 | (110%) | 4.09 | (116%) | 2.16 | (91%) | 2.85 | (81%) | (121%) | 4.69 | 3.29
CNCc1cccc2c1OCCCCCC[C@@](C)(O)CC(C)(C)S(=O)(=O)c1ccc(cc1)-c1cnc(N)c(n1)C(=O)N2 (single isomer, unassigned) [Compound A-2] | 2e-05 | 2.29 | (91%) | 0.753 | (101%) | 2.95 | (82%) | 2.71 | (110%) | (107%) | 3.44 | 2.42
CNCc1cccc2c1OCCCCCC[C@](C)(O)CC1(CC1)S(=O)(=O)c1ccc(cc1)-c1cnc(N)c(n1)C(=O)N2 (single isomer, unassigned) [Compound B-1] | 4e-05 | 4.61 | (93%) | 7.43 | (105%) | 7.06 | (132%) | 1.57 | (106%) | (98%) | 4.95 | 5.12
CNCc1cccc2c1OCCCCCC[C@@](C)(O)CC1(CC1)S(=O)(=O)c1ccc(cc1)-c1cnc(N)c(n1)C(=O)N2 (single isomer, unassigned) [Compound B-2] | 2e-05 | 3 | (81%) | 3.12 | (94%) | 2.62 | (115%) | 0.97 | (115%) | (101%) | 1.89 | 2.32
CC1(C)C[C@](C)(O)CCCCCCOc2c(CN)cccc2NC(=O)c2nc(cnc2N)-c2ccc(cc2)S1(=O)=O (single isomer, unassigned) [Compound C-2] | 1e-05 | 5.41 | (71%) | 11.5 | (95%) | 2.47 | (100%) | 3.2 | (95%) | (92%) | 2.03 | 4.92
C[C@@H]1COCCN1c1cc(C2([S@](C)(=N)=O)CC2)nc(-c2cc[nH]c3nccc2-3)n1 [AZD 6738, reference compound] | 0.0003 | 57.1 |  | 91.8 | (190%) | 86.6 | (116%) | 107 | (105%) | (165%) | 275 | 123
CNCc1ccc(-c2cc(-c3nc(-c4ccc(S(=O)(=O)C(C)C)cc4)cnc3N)on2)cc1 [VE822, reference compound] | 0.0003 | 62.1 | (105%) | 11.5 | (79%) | 84.6 | (89%) | 9.5 | (55%) | (86%) | 84.9 | 50
